From patent publication US12227548B2, “Use of IRE1α-XBP1 signaling pathway biomarkers for modulating immune responses” (Dana-Farber Cancer Institute, Inc., priority 2018, dated 2025) come the findings set out here.

One test concerns primary human NK cells. The experiment in a line: Ex vivo expansion of primary human NK cells with IL-2 and IL-15, CTV dilution. It counts as cell-based. As to the method:
Equal numbers of NK cells from wild-type and IRE1^NK donors were labelled with cell proliferation tracing dye CTV, and then co-transferred into lymphocyte-lacking recipient Rag2-/-Il2rg-/- mice. Flow cytometric evaluation of NK cell expansion and proliferation was performed in the spleen of recipient mice at day 3-5 after transfer. […] IRE1^NK and IRE1^f/f NK cells from littermate animals were pre-labeled with CTV and cultured ex vivo with IL-2 and IL-15 for the indicated number of days. […] Two-way analysis of variance (ANOVA) with the Sidak post-test performed on FIGS. 7B and 7D. Two tailed unpaired Student's t-test performed on FIG. 7C. One-way analysis of variance (ANOVA) with the Tukey post-test performed on FIG. 7G. Two tailed paired Student's t-test performed on FIGS. 7F, 7I and 7J. All error bars show the standard deviation. Data are representative of three (FIGS. 7B and 7C) and two (FIGS. 7D-7E and 7G-7H) independent repeats. Data in FIGS. 7F, 7I and 7J are pooled from two independent repeats. N equals 2 mice/group in FIG. 7B. N equals 4 mice/group in FIGS. 7C, 7G and 7H. N equals 3 mice/group (and technical duplicates for ex vivo culture) in FIGS. 7D and 7E. N equals 6, 5 and 5 PBMC donors in FIGS. 7F, 7I and 7J. Peripheral blood mononuclear cells (PBMCs) from healthy donors (New York Blood Center) were isolated by density gradient centrifugation with Ficoll (GE Healthcare). […]

Test [1] relates to c-Myc promoter activation in Myc^GFP NK cells. As to the kind of experiment: c-Myc reporter (Myc^GFP) expression in splenic NK cells treated with cytokines. It counts as cell-based, mouse. To be noted: FIG. 9H. On the procedure: Genes were clustered by functional annotation. […] Equal numbers of Ly49H^+ NK cells from wild type and knockout donors were co-transferred into recipient Ly49H-deficient mice 1 day before infection. […] Anti-XBP1s Ab was used and IgG was used as mock control. FIG. 9H show the representative flow cytometric plots (left) and quantification of c-Myc reporter expression. Before assessment, splenic NK cells from c-Myc reporter mice (Myc^GFP) were treated with indicated cytokines for 16 hours, either in the presence or absence of the IRE1 inhibitor (IRE1i) 4μ8c. […] Equal numbers of Ly49H^+ NK cells from wild type and Myc^NK donors were co-transferred into recipient Ly49H− deficient mice 1 day before infection. […] One sample t-test performed on FIG. 9J. Two tailed unpaired Student's t-test performed on FIG. 9D and FIG. 9G. Two-way analysis of variance (ANOVA) with the Sidak post-test performed on FIGS. 9E, and 9I. […] Each column in FIG. 9B is a different mouse. Data are representative of three (FIGS. 9C-9E and FIG. 9G) and two independent repeats (FIGS. 9F, 9H, 9I and 9J). Data were independently repeated three (FIGS. 9D and 9H) and two (FIGS. 9G-9J). N equals 3 or 4 mice/group in FIG. 9D and FIG. 9J; n equals 3 technical replicates/group in FIG. 9G; n equals 3 replicates/treatment in ex vivo culture in FIG. 9H; n equals 5 mice/group in FIG. 9I. […]

In a further test the test system is mouse NK cells. The experiment in a line: Ex vivo expansion of mouse NK cells (Myc^OE and littermate control) with IL-2 and IL-15, CTV dilution. It counts as cell-based. Conditions: IL-2 and IL-15 for 3 days, FIG. 15B. On the procedure: FIG. 15A-FIG. 15E show the restoration of c-Myc in the absence of IRE1 rescues the NK cell proliferation defect. […] FIG. 15C-FIG. 15E show WT (Myc^fsf/+ IRE1^f/f Ncr1^Cre−), IRE1^NK (Myc^+/+ IRE1^f/f Ncr1^Cre+) Myc^OE (Myc^fsf/+ IRE1^+/+ Ncr1^Cre+) and Myc^OE IRE1^NK (Myc^fsf/+ IRE1^f/f Ncr1^Cre+) NK cells pre-labeled with CTV and cultured ex vivo with IL-2 and IL-15. […] P values are as indicated; ns=not significant. One sample t-test is performed on FIG. 15A. One-way analysis of variance (ANOVA) with the Tukey post-test is performed on FIGS. 15C-15E. All error bars are s.e.m. N=5 mice/group in FIG. 15A, n=2 mice/group in FIG. 15B and n=4 mice/group in FIGS. 15C-15E. […] Experiments in FIGS. 15B-15E were independently repeated three times.
For FIG. 1E, ˜2×10^5 sorted splenic NK cells were stimulated for 16 hr in complete RPMI containing 10% FBS with recombinant mouse IL-2 ([…]; BioLegend), either in the presence or absence of IL-12 (20 ng/ml; Peprotech) and IL-18 (10 ng/ml; R&D Systems). For ex vivo NK cell expansion experiments, 2.5×10^5 sorted NK cells (>97% purity) were stimulated in RPMI supplemented with 10% FBS, penicillin-streptomycin, L-glutamine and β-mercaptoethanol, and with recombinant mouse IL-2 (10 ng/ml; R&D Systems) and IL-15/15R (40 ng/ml; eBioscience) re-applied every other day. […]

The subject of the next test is human primary NK cells. As to the kind of experiment: Metabolic flux assay (oxygen consumption rate) of IL-12 and IL-18 activated human primary NK cells. It counts as cell-based. Conditions: IL-12 and IL-18 for 16 hr, inhibitor 5 μM; FIG. 14C. On the procedure:
Genes were clustered by functional annotation. c-Myc-regulated genes (Morrish and Hockenbery (2014) Cold Spring Harb. Perspect. Med. 4:a014225) are shown in black text on the right. […] Primary human NK cells isolated from PBMC were incubated with IL-12 and IL-18 for 16 hr, in the presence or absence of the IRE1α inhibitor 4μ8C (5 uM). Approximately 600,000 cells were plated per well, and the data were normalized to total protein quantification. Oligo (Oligomycin, 1 μM), FCCP (carbonyl cyanide-p-(trifluoromethoxy) phenylhydrazone, 1 μM), R (rotenone, 0.5 μM) and A (antimycin, 0.5 μM).
Purified human primary NK cells from healthy PBMC donors were stimulated with human recombinant IL-12 and IL-18 for 16 hr in complete RPMI medium, in the presence or absence of IRE1 inhibitor 4μ8C (5 μM). After incubation, NK cells were collected, thoroughly washed and then subjected to Seahorse analyses using non-buffered XF base medium containing 25 mM glucose, 2 mM L-glutamine, and 1 mM sodium Pyruvate but lacking serum. […] 6×10^5 NK cells were plated and OCR measurements were analyzed on an XFe96 Extracellular Flux Analyzer (Agilent). After basal OCR measurements were obtained, an OCR trace was recorded in response to oligomycin (1 μM), carbonyl cyanide-p-(trifluoromethoxy) phenylhydrazone (FCCP, 1 μM), and rotenone and antimycin (0.5 μM each) following the XF Cell Mito Stress test kit (Agilent). […]

For test [2], the system named is Chop and IRE1α/XBP1 pathway in NK cells. The experiment in a line: Ex vivo incubation of splenic NK cells with tunicamycin, XBP1 splicing assay and qRT-PCR of UPR genes. The format is cell-based, mouse. To be noted: 4 hours ex vivo incubation, FIG. 3A. The text has this: The quantitative real time PCR data were presented as relative expression to β-Actin. […] BM NK cells were identified by Lin^−CD122 and splenic NK cells were identified by Lin^−NK1.1^+. Ns indicates “not significant”, * indicates p<0.05, ** indicates p<0.01, *** indicates p<0.001 and **** indicates p<0.0001. Two tailed unpaired Student's t-test performed on FIG. 3A. All error bars show standard deviation. N equals 3 mice/group in FIG. 3A and FIG. 3D. N equals 5 mice/group in FIGS. 3B-3C and FIG. 3F. N equals 10 mice in FIG. 3E. Experiments were independently repeated three (FIGS. 3A-3C and 3E-3F) and two ([…] FIG. 3D) times.
Cells were pre-enriched (Miltenyi Biotec) and then sorted to >95% purity and RNA was isolated using the RNeasy® RNA purification mini (for 5×10^5 cells or beyond) or micro (for <5×10^5 cells) kit (Qiagen) according to the manufacturer's protocol. From purified RNA, cDNA was synthesized using the reverse-transcriptase kit gScript™ cDNA synthesis kit (Quanta Biosciences). Quantitative real time PCR (qRT-PCR) was performed in triplicates in a 384-well plate using Taqman® Probes (Themo Fisher) or SYBR® Green (Quanta Biosciences)-based detection on an ABI QuantStudio™ 6 Flex qRT-PCR machine. For experiments in FIG. 9D, CellDirect™ One-Step qRT-PCR Kit with Rox (Life Technologies) was used according to the manufacturer's instruction. […]

On to `Cc1cc(=O)oc2c(C=O)c(O)ccc12` [4μ8c, 8-formyl-7-hydroxy-4-methylcoumarin], for which the “proliferation of CD56^bright versus CD56^dim NK cells” value in the test on primary human NK cells (IL-2 and IL-15, day 6, FIG. 7I) is reported as “primarily hindered the proliferation of CD56^bright NK cells”. In addition, the “proliferation of primary human NK cells” value in the test on primary human NK cells (cultured in IL-2 and IL-15, 5 μM inhibitor vs DMSO, day 6, FIG. 7F) is reported as “significant reduction in proliferation”. In test [1] (Myc^GFP NK cells stimulated with IL-15, or IL-12 and IL-18, 16 hours), the “c-Myc reporter GFP induction under IRE1α blockade” value was “GFP induction was largely impeded”. Moreover, the “proliferation of NK cells from Myc^OE mice” value with mouse NK cells (inhibitor 5 μM vs DMSO) is “proliferated to a comparable extent as in the DMSO-treated control group”. Further, the “proliferation of NK cells from WT littermates” value in the test on mouse NK cells (inhibitor 5 μM) was “impaired in proliferation”. In addition, in the test on human primary NK cells, the “levels of OXPHOS (basal OCR)” value was “significantly decreased levels of OXPHOS” and the maximal respiration rate result is given as “reduced maximal respiration rate”.

With tunicamycin, in test [2], the Chop expression entry is reported as “strongly triggered Chop expression” and the IRE1α/XBP1 pathway result is “upregulation of the IRE1α/XBP1 pathway”.

Take IL-15: recombinant cytokine IL-15: the “c-Myc reporter GFP” value in test [1] (Myc^GFP NK cells, 16 hours, in the absence of 4μ8c) was “c-Myc reporter GFP was induced”.
